# Assay results from patent US20230277427A1, “COOLING SENSATION COMPOSITIONS” (GIVAUDAN SA, priority 2020, published 2023).
# Tests used:
# [1] = Stability of the solutions over time at different temperature (Example B); assay type: physicochemical
# Procedure: The compound of Formula 1 was 2-methyl-1-(2-(5-(p-tolyl)-1H-imidazol-2-yl)piperidin-1-yl)butan-1-one (hereinafter “the compound”). The testing procedure with a number of different solvents was as follows: • 1. To 0.4 g compound was added 1.6 g solvent. This corresponds to a 20% solution. • 2. This mixture was warmed to 50° C. and agitated for 1 hour. • 3. If the compound dissolved, the solution was allowed to cool to room temperature, and then if it remained clear, it was stored overnight at 4° C. • 4. If crystals had developed, a further 2 g solvent was added (this now corresponding to a 10% solution) and step 2 were performed. • 5. The observations and actions of step 3 were performed. • 6. If the 10% combination of step 4 was not a solution, a further 4 g solvent was added (this now corresponding to a 5% solution), and step 2 were performed. • 7. The observations and actions of step 3 were performed. If crystals had developed, any such solvent was considered unsuitable Any solvent in which the compound was not crystallising at a 20 weight % solution, the testing procedure was repeated with a higher concentration as follows: • 1. To 1 g compound was added 1 g solvent. This corresponds to a 50% solution. • 2. This mixture was warmed to 50° C. and agitated for 1 hour. • 3. If the compound dissolved, the solution was allowed to cool to room temperature, and then if it remained clear, it was stored overnight at 4° C. • 4. If crystals had developed, a further 0.5 g solvent was added (this now corresponding to a 40% solution) and step 2 were performed. • 5. The observations and actions of step 3 were performed. • 6. If the 40% combination of step 4 was not a solution, a further 0.83 g solvent was added (this now corresponding to a 30% solution), and step 2 were performed. • 7. The observations and actions of step 3 were performed.
# [2] = Solubility of compounds of formula (I) in different solvents (Example A); assay type: physicochemical; conditions: for in the fridge (precipitation): about 4° C. over night; for solubility @ RT: weight % of compound
# Procedure: Into a 20 ml vial 0.4 g of 2-methyl-1-(2-(5-(p-tolyl)-1H-imidazol-2-yl)piperidin-1-yl)butan-1-one (white solid) have been added followed by the addition of 1.6 g of the respective solvent as indicated in Table 1 below. The vial was warmed to about 50° C. with gentle agitation for 1 hour. If 2-methyl-1-(2-(5-(p-tolyl)-1H-imidazol-2-yl)piperidin-1-yl)butan-1-one hasn't dissolved, 2 g of the respective solvent was added (resulting in a composition comprising 10 weight % of a compound of formula (I)), and again gentle agitated for an additional hour at about 50° C. If 2-methyl-1-(2-(5-(p-tolyl)-1H-imidazol-2-yl)piperidin-1-yl)butan-1-one still hasn't dissolved, 4 g of the respective solvent was added (resulting in a composition comprising 5 weight % of a compound of formula (I)), and again gentle agitated for an additional hour at about 50° C.
# If 2-methyl-1-(2-(5-(p-tolyl)-1H-imidazol-2-yl)piperidin-1-yl)butan-1-one has dissolved, the vial was removed from the heat and was allowed to cool to room temperature. If no precipitation was observed the vials haven been placed in the fridge (about 4° C.) over night.
# If 2-methyl-1-(2-(5-(p-tolyl)-1H-imidazol-2-yl)piperidin-1-yl)butan-1-one still has not dissolved, the procedure above has been repeated, starting with 0.05 g of 2-methyl-1-(2-(5-(p-tolyl)-1H-imidazol-2-yl)piperidin-1-yl)butan-1-one and 0.95 g of the respective solvent as indicated in Table 1 below. If still not dissolved, 1 g of the respective solvent was added (resulting in a composition comprising 2.5 weight % of a compound of formula (I))). If still not dissolved further solvent was added.
smiles,measurement,setting,value
CCC(C)C(=O)N1CCCCC1c1ncc(-c2ccc(C)cc2)[nH]1 (stereo not shown) [2-methyl-1-(2-(5-(p-tolyl)-1H-imidazol-2-yl)piperidin-1-yl)butan-1-one],"stability of a solution, weight % of compound, @ 4° C. Overnight",[1]; solvent Butyl lactate,20% weight %
same,"stability of a solution, weight % of compound, @ 4° C. Overnight",[1]; solvent Ethanol abs.,30% weight %
same,"stability of a solution, weight % of compound, @ 4° C. Overnight",[1]; solvent Ethyl lactate,10% weight %
same,"stability of a solution, weight % of compound, @ 4° C. Overnight",[1]; solvent Isopropyl alcohol,10% weight %
same,"stability of a solution, weight % of compound, @ 4° C. Overnight",[1]; solvent Isopropylidene glycerol,10% weight %
same,"stability of a solution, weight % of compound, @ 4° C. Overnight","[1]; solvent L-Lactic acid, purity 86.7 weight %",50% weight %
same,"stability of a solution, weight % of compound, @ 4° C. Overnight","[1]; solvent dl-Lactic acid, purity 88 weight %",50% weight %
same,in the fridge (precipitation),"[2]; solvent Butyl lactate, 10% solution",no crystals observed
same,solubility @ RT,"[2]; solvent Butyl lactate, dissolved at about 50° C., cooled to room temperature",10%
same,in the fridge (precipitation),"[2]; solvent Ethanol abs., 20% solution",no crystals observed
same,solubility @ RT,"[2]; solvent Ethanol abs., dissolved at about 50° C., cooled to room temperature",20%
same,in the fridge (precipitation),"[2]; solvent Ethyl lactate, 10% solution",no crystals observed
same,solubility @ RT,"[2]; solvent Ethyl lactate, dissolved at about 50° C., cooled to room temperature",10%
same,in the fridge (precipitation),"[2]; solvent Isopropyl alcohol, 10% solution",no crystals observed
same,solubility @ RT,"[2]; solvent Isopropyl alcohol, dissolved at about 50° C., cooled to room temperature",10%
same,in the fridge (precipitation),"[2]; solvent Isopropylidene glycerol, 10% solution",no crystals observed
same,solubility @ RT,"[2]; solvent Isopropylidene glycerol, dissolved at about 50° C., cooled to room temperature",10%
same,in the fridge (precipitation),"[2]; solvent L-Lactic acid, purity 86.7 weight %, 20% solution",no crystals observed
same,solubility @ RT,"[2]; solvent L-Lactic acid, purity 86.7 weight %, dissolved at about 50° C., cooled to room temperature",20%
same,in the fridge (precipitation),"[2]; solvent Propylene glycol, 2.5% solution",no crystals observed
same,solubility @ RT,"[2]; solvent Propylene glycol, dissolved at about 50° C., cooled to room temperature",2.5%
same,in the fridge (precipitation),"[2]; solvent Triacetin, 1% solution",no crystals observed
same,solubility @ RT,"[2]; solvent Triacetin, dissolved at about 50° C., cooled to room temperature",1%
same,in the fridge (precipitation),"[2]; solvent Triethyl citrate, 2.5% solution",no crystals observed
same,solubility @ RT,"[2]; solvent Triethyl citrate, dissolved at about 50° C., cooled to room temperature",2.5%
same,solubility @ RT,[2]; solvent Water dest.,<1% (not soluble)
same,in the fridge (precipitation),"[2]; solvent dl-Lactic acid, purity 88 weight %, 20% solution",no crystals observed
same,solubility @ RT,"[2]; solvent dl-Lactic acid, purity 88 weight %, dissolved at about 50° C., cooled to room temperature",20%
